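Cultured in 96-well plates, cells were exposed to test compound for 48 hours across five concentrations. TGI: concentration producing complete growth inhibition.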
Assays:
Experiment in all cases: growth of human tumour cells (NCI), 48 h
[1] = test system: SK-MEL-2 melanoma
[2] = test system: K-562 leukemia
[3] = test system: SK-MEL-5 melanoma
[4] = test system: MDA-MB-435
[5] = test system: A549 NSCLC
[6] = test system: NCI/ADR-RES ovarian
[7] = test system: OVCAR-5 ovarian
[8] = test system: HOP-62 NSCLC
[9] = test system: RXF 393 renal
[10] = test system: TK-10 renal
[11] = test system: T-47D breast
[12] = test system: KM12 colon
[13] = test system: UACC-257 melanoma
[14] = test system: UACC-62 melanoma
[15] = test system: U251 CNS
[16] = test system: MDA-N
[17] = test system: NCI-H460 lung
[18] = test system: SN12C renal
[19] = test system: NCI-H226 lung
[20] = test system: PC-3 prostate
[21] = test system: HCC-2998 colon
[22] = test system: CAKI-1 renal
[23] = test system: HT29 colon
[24] = test system: OVCAR-8 ovarian
[25] = test system: M14 melanoma
[26] = test system: LOX IMVI melanoma
[27] = test system: MCF7 breast
[28] = test system: SNB-75 CNS
[29] = test system: SF-295 CNS
[30] = test system: MALME-3M melanoma
[31] = test system: NCI-H23 lung
[32] = test system: COLO 205 colon
[33] = test system: SNB-19 CNS
[34] = test system: SK-OV-3 ovarian
[35] = test system: HS 578T breast
[36] = test system: NCI-H522 lung
[37] = test system: OVCAR-3 ovarian
[38] = test system: HCT-116 colon
[39] = test system: 786-0 renal
[40] = test system: A498 renal
[41] = test system: SF-539 CNS
[42] = test system: SW-620 colon
[43] = test system: HCT-15 colon
[44] = test system: SK-MEL-28 melanoma
[45] = test system: IGROV1 ovarian
[46] = test system: RPMI-8226 leukemia
[47] = test system: EKVX NSCLC
[48] = test system: DU-145 prostate
[49] = test system: HOP-92 NSCLC
[50] = test system: ACHN renal
[51] = test system: SF-268 CNS
[52] = test system: OVCAR-4 ovarian

N#CCCC1(CCC#N)CCCCCCCCC(CCC#N)(CCC#N)C(O)C1O (configuration not stated)
TGI [1]: > 100 µM
TGI [2]: > 100 µM
TGI [3]: > 100 µM
TGI [4]: > 100 µM
TGI [5]: > 100 µM
TGI [6]: > 100 µM
TGI [7]: > 100 µM
TGI [8]: > 100 µM
TGI [9]: 86.9 µM
TGI [10]: > 100 µM
TGI [11]: > 100 µM
TGI [12]: > 100 µM
TGI [13]: > 100 µM
TGI [14]: > 100 µM
TGI [15]: > 100 µM
TGI [16]: > 100 µM
TGI [17]: > 100 µM
TGI [18]: > 100 µM
TGI [19]: > 100 µM
TGI [20]: > 100 µM
TGI [21]: > 100 µM
TGI [22]: > 100 µM
TGI [23]: > 100 µM
TGI [24]: > 100 µM
TGI [25]: > 100 µM
TGI [26]: > 100 µM
TGI [27]: > 100 µM
TGI [28]: > 100 µM
TGI [29]: > 100 µM
TGI [30]: > 100 µM
TGI [31]: > 100 µM
TGI [32]: > 100 µM
TGI [33]: > 100 µM
TGI [34]: > 100 µM
TGI [35]: 91.3 µM
TGI [36]: > 100 µM
TGI [37]: > 100 µM
TGI [38]: > 100 µM
TGI [39]: > 100 µM
TGI [40]: > 100 µM
TGI [41]: 85.8 µM
TGI [42]: > 100 µM
TGI [43]: > 100 µM
TGI [44]: > 100 µM
TGI [45]: > 100 µM
TGI [46]: 58.2 µM
TGI [47]: > 100 µM
TGI [48]: > 100 µM
TGI [49]: > 100 µM
TGI [50]: > 100 µM
TGI [51]: > 100 µM
TGI [52]: > 100 µM

Reference: PubChem BioAssay (NCI)
